“And” between values parts separate entries of the source, which are not always exact repeats. Equal values may be shown once. Read-outs that look alike come from different tables or passages of the source.

Series [1] has as its system BaF3/NMP-ALK cancer cell line. Description: Antiproliferative activity, CCK-8 assay, BaF3/ALK cells. It counts as cell-based, mouse. The note with it: read-out: BaF3/NMP-ALK IC50.
The test system of series [2] is H2228 EML4-ALK cancer cell line. Description: Antiproliferative activity, MTT assay, H2228 monolayer. It counts as cell-based, human. As to conditions: read-out: H2228 IC50 EML4-ALK.
The subject of series [3] is H2228 xenograft. Kind of series: In vivo anti-tumor evaluation, H2228 xenograft in nude mice. As to conditions: 20 mg kg^-1, oral, 14 days.
The subject of series [4] is L02 cells. Kind of series: Toxicity assay on human normal cells, L02. It counts as cell-based. As to conditions: L02, read-out: IC50 L02.
Series [5] concerns HK-2 cells. Kind of series: Toxicity assay on human normal cells, HK-2. In kind it is cell-based.
The subject of series [6] is EA.hy926 cells. Kind of series: Toxicity assay on human normal cells, EA.hy926. As to conditions: for IC50: Homo sapiens. In kind it is cell-based.
Setting [7] is: CCK-8, 48 h, at least three experiments.
Where [8] appears, read: MTT, 48 h, mean ± SD, at least three experiments.

In the case of “4-Chloro-N2-(2-ethoxy-5-methyl-4-(1-methylpiperidin-4-yl)phenyl)-N5-(2-(ethylsulfinyl)-4-fluorophenyl)pyrimidine-2,5-diamine [Compound 18g]”, the IC50 in series [1] (setting [7]) stood at 29 ± 12 nM; in series [2] (setting [8]), 33 ± 7 nM.

As to “4-Chloro-N5-(2-(ethylsulfinyl)-4-fluorophenyl)-N2-(2-isopropoxy-5-methyl-4-(1-methylpiperidin-4-yl)phenyl)pyrimidine-2,5-diamine [Compound 18L]”, the IC50 in series [1] (setting [7]) came to 28 ± 8 nM; in series [2] (setting [8]), 31 ± 10 nM.

As for “4-Chloro-N5-(2-(ethylsulfinyl)-4-fluorophenyl)-N2-(2-isopropoxy-5-methyl-4-(piperidin-4-yl)phenyl)pyrimidine-2,5-diamine [Compound 18j]”, the results for the IC50 in series [1] (setting [7]) and in series [2] (setting [8]) were 56 ± 4 nM and 63 ± 8 nM, respectively.

With “4-Chloro-N5-(2-(ethylsulfinyl)-4-fluorophenyl)-N2-(2-methoxy-5-methyl-4-(1-methylpiperidin-4-yl)phenyl)pyrimidine-2,5-diamine [Compound 18f]”, the IC50 in series [1] (setting [7]) was determined as 31 ± 13 nM; in series [2] (setting [8]), 37 ± 11 nM.

Take “4-Chloro-N5-(2-(ethylsulfinyl)-4-fluorophenyl)-N2-(2-methoxy-5-methyl-4-(piperidin-4-yl)phenyl)pyrimidine-2,5-diamine [Compound 18h]”: the IC50 in series [1] (setting [7]) was 47 ± 15 nM; in series [2] (setting [8]), 58 ± 16 nM.

As to “4-Chloro-N5-(2-(ethylsulfinyl)phenyl)-N2-(2-methoxy-4-(1-methylpiperidin-4-yl)phenyl)pyrimidine-2,5-diamine [Compound 18k]”, the IC50 in series [1] (setting [7]) turned out to be 24 ± 5 nM; in series [2] (setting [8]), 57 ± 6 nM.

On to “4-Chloro-N5-(2-(ethylsulfinyl)phenyl)-N2-(2-methoxy-5-methyl-4-(1-methylpiperidin-4-yl)phenyl)pyrimidine-2,5-diamine [Compound 18e]”, for which the IC50 in series [1] (setting [7]) stood at 33 ± 10 nM; in series [2] (setting [8]), 44 ± 12 nM.

Consider “4-Chloro-N5-(4-chloro-2-(ethylsulfinyl)phenyl)-N2-(2-isopropoxy-5-methyl-4-(1-methylpiperidin-4-yl)phenyl)pyrimidine-2,5-diamine [Compound 18i]”, for which the results for the IC50 in series [1] (setting [7]) and in series [2] (setting [8]) were 77 ± 15 nM and 81 ± 28 nM, respectively.

As for `Cc1cc(Nc2ncc(Cl)c(Nc3ccccc3S(=O)(=O)C(C)C)n2)c(OC(C)C)cc1C1CCNCC1` [Ceritinib, ceritinib], the “Tumor growth inhibitory rate (TGI)” value in series [3] was 72.8% and 72.0%. Also, in series [3], the “Tumor volume changes (inhibitory effects)” value is on record as 131.00 mm^3. Besides, the IC50 in series [4] is 3.42 ± 0.56 µM; in series [1] (Mus musculus, BaF3, 48 h) it was 18 ± 1 nM; in series [5] (Homo sapiens, HK-2, read-out: IC50 HK-2), 1440 ± 250 nM; in series [6] (EA.hy 926, read-out: IC50 EA.hy926 (active)), 3420 ± 560 nM; in series [6] (EA.hy 926, read-out: IC50 EA.hy926 (quiescent)), 2440 ± 340 nM; in series [2] (Homo sapiens, NCI-H2228, 48 h), 25 ± 10 nM. The HK-2 cell morphology entry in series [5] (48 h, 1 μM (Fig. 9)) was “abnormal morphology changes”. The EA.hy926 cell morphology entry in series [6] (48 h, 1 μM (Fig. 9)) is on record as “abnormal morphology changes”.

Source of the values: PMC11140455 (RSC Advances, 2024).
